From article PMC12187371 (Neuro-Oncology, 2024)

Assays:
HEI-193 cells [1] = experiment: HEI-193 cell viability; format: cell-based, human; conditions: WST-8, 3 days
normal human fibroblasts [2] = experiment: Normal human fibroblast viability; format: cell-based; conditions: WST-8, 3 days
HEI-193 cells [3] = experiment: Western blotting of differentiation and cell cycle markers in HEI-193 cells; format: cell-based, human; conditions: 7 days
normal human fibroblasts [4] = experiment: Apoptosis markers in normal human fibroblasts; format: cell-based; conditions: 1 day
[5] = system: NF2-associated vestibular schwannomas; conditions: progressive NF2-associated vestibular schwannomas; cited from earlier work

Row | Compound | proliferation of HEI-193 cells (HEI-193 cells [1]) | toxicity in human normal fibroblasts (normal human fibroblasts [2]) | expression of SOX10, MBP, p21 and p27 (HEI-193 cells [3]) | expression of stem cell factor SOX2 (HEI-193 cells [3]) | cytochrome c release from mitochondria (normal human fibroblasts [4]) | patients with improved hearing and reduced tumor volume [5]
1 | COc1cc(N2CCC(N3CCN(C)CC3)CC2)ccc1Nc1ncc(Cl)c(Nc2ccccc2P(C)(C)=O)n1 [Brigatinib] | dose-dependently reduced | showed toxicity | decreased the expression of all these markers | decreased the expression of all these markers | induced cytochrome c release | –
2 | Cn1cnc2c(F)c(Nc3ccc(Br)cc3Cl)c(C(=O)NOCCO)cc21 [Selumetinib] | did not exhibit any effect | – | – | – | – | –
3 | Bevacizumab | – | – | – | – | – | about 40 % of patients
